Measurements taken from article PMC3199744, “Preformulation and stability in biological fluids of the retrocyclin RC-101, a potential anti-HIV topical microbicide” (AIDS Research and Therapy, 2011).

Experiment: Stability in HVF positive for bacterial vaginosis (HVF BV+), detection by LC-MS/MS
Details: for detection of RC-101 by LC-MS/MS: nanoLC-SRM MS, qualitative
Method: After removing the Instead Softcup®, a speculum examination was performed. Swab specimens of the endocervix were obtained using the Mini-tip Culturette TN collection system (Becton Dickinson, Sparks, MD) according to the manufacturer's guidelines. C. trachomatis and N. gonorrhoeae were detected with an amplified DNA assay based on the simultaneous amplification and detection of target DNA amplification primers and a fluorescent label detector probe. Bacterial vaginosis was detected by Gram stain and assessed by the Nugent score, where score results between 0 and 3 indicate a normal flora, between 4 and 6 indicates an intermediate state, and between 7 and 10 indicates bacterial vaginosis.
The HVF from the Instead Softcup® was removed by centrifugation of the conical tube for 10 min at 5,000 rpm. […] HVF was then removed from the cup and the pH of each HVF sample was measured with Fisher Alkacid pH filter strips (Fisher Scientific). All samples collected on a specific day were pooled to be used for the research studies. If the pH of the individual samples was higher than 5, the sample was not included in the pool but it was stored at -80°C for separate analysis. If the sample contained blood, it was immediately discarded. Samples were prepared as described in Table 1. […] Because of its high viscosity, HVF was measured by weight and not by volume. All solutions were prepared fresh and incubated with HVF (or water) at 37°C for specific periods of time (0, 2, 6, 12, 24, 48, and 72 h), unless specified otherwise. At each time point, the samples were centrifuged at 10,000 rpm for 10 min to separate the supernatant from the epithelial cells as described in the cell processing section. Both parts (supernatant and cells) were stored at -80 ± C until analyzed by LC-MS/MS. To evaluate the influence of freezing the fluid prior to the analysis, the last pool of HVF was divided into two samples: one used fresh (at the time of collection), and the other one stored at -80°C for a 3-month period. After that time period, HVF was thawed and processed for blank and RC-101 solution only, as described in Table 1. HVF samples collected with a high pH value indicative of BV were stored at -80°C as previously mentioned. After confirmation of BV on those fluid samples by Gram stain score, the fluid samples (HVF BV^+) were thawed, pooled, and processed as described in Table 1.
At each time point, the sample was removed from the incubation chamber and centrifuged for 10 min at 10,000 rpm, at 4 ± C to separate the supernatant from cell pellet. Supernatant (100 μL) was added to microcentrifuge filters Ultracel YM-10 Microcon MWCO 10,000 (Millipore Corporation, Bedford, MA), which were pre-washed with Milli Q water to eliminate any trace of propylene glycol from the filters. Samples were centrifuged twice for 15 min at 8,500 rpm, at 4 ± C. The filtrate was collected and frozen at -80 ± C until further analysis. A solution of 3 M urea was added to the cell pellet (1:1 w/w) obtained from the first centrifugation, to lyse the cells. This mixture was vortexed three times for 30 sec, and then centrifuged for 10 min at 10,000 rpm, at 4 ± C. The supernatant obtained from the cell lysate was then added to microcentrifuge filters Ultracel YM-10 Microcon MWCO 10,000 pre-washed with Milli Q water. Samples were centrifuged twice for 15 min at 8,500 rpm, at 4 ± C. The filtrate was collected and frozen at -80 ± C until analysis. […] Samples were thawed and added to PepCleanTM C-18 spin columns (Pierce Biotechnology Inc., Rockford, IL) for desalting, after column conditioning with acetonitrile:water (50:50) and equilibration with 0.1% trifluoroacetic acid. The column was washed three times with 0.1% trifluoroacetic acid, and RC-101 was eluted with acetonitrile:water (60:40) in 0.1% trifluoroacetic acid.

Sequence: GICRCICGKGICRCICGR (bicyclic or more) [RC-101]
- detection of RC-101 by LC-MS/MS (HVF BV+ pool 1:1, 37°C, 2 h): -
- detection of RC-101 by LC-MS/MS (HVF BV+ pool 1:1, 37°C, 6 h): -
- detection of RC-101 by LC-MS/MS (HVF BV+ pool 1:1, 37°C, 12 h): -
- detection of RC-101 by LC-MS/MS (HVF BV+ pool 1:1, 37°C, 24 h): -
- detection of RC-101 by LC-MS/MS (HVF BV+ pool 1:1, 37°C, 48 h): -
- detection of RC-101 by LC-MS/MS (HVF BV+ pool (pH 5.8 ± 0.6, stored -80°C) 1:1, 37°C, 0 h): -
- detection of RC-101 in HVF BV+ (HVF BV+ pool (stored -80°C), any time point studied, supernatant or cells, 37°C, LC-MS/MS): undetectable
